Counter-ions that a name gives are not always drawn. Like-named read-outs stand apart in the source and are kept apart here.
Key:
[1] = molecular target: T1, human TRPA1 (Homo sapiens, UniProt O75762); experiment: FLIPR Ca2+ assay, block of AITC activation of TRPA1; type: cell-based; design: expressed in transfected cells
Method: Intracellular Ca^++ levels were measured using cell based assays as described for EXAMPLES 1, 2, and 3.

[2] = molecular target: T1, human TRPA1; experiment: FLIPR Ca2+ assay, reduction of hydrogen peroxide activation of TRPA1; type: cell-based; design: expressed in transfected cells
Method: After centrifugation, a pellet of cells was formed in the bottom of the tube separating them from the supernatant solution.
The pelleted cells were re-suspended in 10 ml assay buffer and 90 μl aliquots (˜50,000 cells) per well delivered to a 96-well assay plate containing 10 μl of test compounds ([…]) or buffer control and incubated at room temperature for 30 minutes.

[3] = molecular target: T2, human TRPV1 (Homo sapiens, UniProt Q8NER1); experiment: FLIPR Ca2+ assay, reduction of L-Menthol activation of TRPV1; conditions: for Average Ca2+ Counts / % Reduction of L-Menthol TRPV1 Activation: antagonist 100 μM against 1 mM L-Menthol; for inhibition at 100 µM: read-out: % Reduction of L-Menthol TRPV1 Activation
T2 sequence (Q8NER1 whole entry): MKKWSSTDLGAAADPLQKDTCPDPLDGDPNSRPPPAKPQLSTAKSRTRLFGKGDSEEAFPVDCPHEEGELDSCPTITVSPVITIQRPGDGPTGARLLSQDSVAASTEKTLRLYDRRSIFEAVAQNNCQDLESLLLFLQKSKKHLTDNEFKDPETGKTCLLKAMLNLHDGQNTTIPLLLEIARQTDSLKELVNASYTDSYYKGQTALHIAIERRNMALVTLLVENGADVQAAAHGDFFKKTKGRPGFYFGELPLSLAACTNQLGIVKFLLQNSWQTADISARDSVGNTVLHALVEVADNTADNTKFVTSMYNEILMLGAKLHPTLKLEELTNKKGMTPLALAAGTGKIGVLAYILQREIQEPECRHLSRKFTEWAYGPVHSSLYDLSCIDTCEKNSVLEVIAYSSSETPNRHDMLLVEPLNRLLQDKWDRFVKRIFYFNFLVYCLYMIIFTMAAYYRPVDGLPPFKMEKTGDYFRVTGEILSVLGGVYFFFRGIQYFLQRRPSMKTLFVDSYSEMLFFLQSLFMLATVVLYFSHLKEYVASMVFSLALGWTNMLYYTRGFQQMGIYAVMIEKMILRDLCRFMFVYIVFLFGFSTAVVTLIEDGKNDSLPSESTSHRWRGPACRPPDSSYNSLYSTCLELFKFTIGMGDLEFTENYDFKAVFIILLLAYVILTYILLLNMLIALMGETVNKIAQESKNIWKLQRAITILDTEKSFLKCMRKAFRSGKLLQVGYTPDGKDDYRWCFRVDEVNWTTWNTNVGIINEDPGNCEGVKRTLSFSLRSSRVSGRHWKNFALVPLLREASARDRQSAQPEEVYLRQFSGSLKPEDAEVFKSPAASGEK

[4] = molecular target: T1, human TRPA1; experiment: FLIPR Ca2+ assay, reduction of L-Menthol activation of TRPA1; conditions: 100 μM antagonist vs 1 mM L-Menthol
[5] = molecular target: T2, human TRPV1; experiment: FLIPR Ca2+ assay, reduction of hydrogen peroxide activation of TRPV1; type: cell-based; design: expressed in transfected cells; conditions: antagonist 100 μM against 500 μM hydrogen peroxide
Method: Cells were detached with addition of 10 ml of PBS (phosphate buffered saline) by hand shaking gently. Cells were transferred to a 50 ml tube and centrifuged at 850 rpm for 3 minutes to remove PBS.
The pelleted cells were re-suspended in 10 ml assay buffer and 90 μl aliquots (˜50,000 cells) per well delivered to a 96-well assay plate containing 10 μl of test compounds (1 mM in assay buffer, […]) or buffer control and incubated at room temperature for 30 minutes.

[6] = 100 μM antagonist vs 500 μM hydrogen peroxide
[7] = compound 100 μM against 200 μM hydrogen peroxide, Sets 1-4
[8] = compound 100 μM against 200 μM hydrogen peroxide, Sets 1-4, read-out: % Reduction of Hydrogen Peroxide TRPA1 Activation
[9] = 400 μM antagonist vs 500 μM hydrogen peroxide

T1 sequence (O75762 whole entry): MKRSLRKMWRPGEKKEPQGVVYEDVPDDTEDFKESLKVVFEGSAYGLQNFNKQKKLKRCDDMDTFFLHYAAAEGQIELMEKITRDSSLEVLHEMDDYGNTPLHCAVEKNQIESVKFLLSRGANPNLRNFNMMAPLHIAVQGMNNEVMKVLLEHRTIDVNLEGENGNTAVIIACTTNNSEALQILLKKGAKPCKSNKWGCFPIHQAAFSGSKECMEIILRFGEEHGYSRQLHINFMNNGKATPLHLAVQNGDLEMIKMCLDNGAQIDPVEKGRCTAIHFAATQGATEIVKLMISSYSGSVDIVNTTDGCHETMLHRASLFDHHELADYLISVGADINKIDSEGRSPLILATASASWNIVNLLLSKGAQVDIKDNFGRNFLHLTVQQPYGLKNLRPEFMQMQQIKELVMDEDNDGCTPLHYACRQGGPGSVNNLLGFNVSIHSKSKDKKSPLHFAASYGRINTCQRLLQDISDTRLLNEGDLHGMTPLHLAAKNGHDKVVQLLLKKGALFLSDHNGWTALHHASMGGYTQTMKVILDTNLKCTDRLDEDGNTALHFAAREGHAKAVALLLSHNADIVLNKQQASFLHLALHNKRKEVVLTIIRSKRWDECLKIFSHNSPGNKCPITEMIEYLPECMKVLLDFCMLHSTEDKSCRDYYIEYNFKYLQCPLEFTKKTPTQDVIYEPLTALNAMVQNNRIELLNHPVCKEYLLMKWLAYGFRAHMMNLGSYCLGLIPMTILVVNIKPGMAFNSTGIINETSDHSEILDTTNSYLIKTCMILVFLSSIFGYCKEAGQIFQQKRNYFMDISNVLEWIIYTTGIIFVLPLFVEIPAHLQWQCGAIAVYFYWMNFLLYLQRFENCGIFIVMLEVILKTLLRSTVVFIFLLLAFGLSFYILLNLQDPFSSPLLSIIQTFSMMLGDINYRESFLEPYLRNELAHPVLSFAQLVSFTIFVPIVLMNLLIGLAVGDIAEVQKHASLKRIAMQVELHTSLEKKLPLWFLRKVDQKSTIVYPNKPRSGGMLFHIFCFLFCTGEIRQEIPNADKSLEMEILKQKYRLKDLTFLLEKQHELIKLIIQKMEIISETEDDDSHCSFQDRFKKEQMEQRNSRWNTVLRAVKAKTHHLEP

CC(C)C=C(C=O)c1ccccc1 (single isomer, unassigned) [4-Methyl-2-phenyl-2 Pentenal (mixture of cis and trans isomers)]
Block of AITC activation of TRPA1 ([1]; 400 μM antagonist): Block both H2O2 and AITC on TRPA1
Block of hydrogen peroxide activation of TRPA1 [2]: Block both H2O2 and AITC on TRPA1

CC(S)CS (stereo not shown) [1,2-propanedithiol]
Block of AITC activation of TRPA1 ([1]; 100 μM antagonist): Block both H2O2 and AITC on TRPA1
Block of hydrogen peroxide activation of TRPA1 [2, 6]: Block both H2O2 and AITC on TRPA1
% Reduction of Hydrogen Peroxide TRPA1 Activation [2, 7]: 68.8%
Average Ca++ Counts [2, 7]: 2194.5 Counts

Cc1ccc(C=O)c(O)c1 [2-hydroxy-4-methylbenzaldehyde]
Block of AITC activation of TRPA1 ([1]; 100 μM antagonist): Block both H2O2 and AITC on TRPA1
Block of hydrogen peroxide activation of TRPA1 [2, 6]: Block both H2O2 and AITC on TRPA1
Average Ca++ Counts [2, 7]: 3429.0 Counts
inhibition at 100 µM [2, 8]: 51.3%

COc1nccnc1CC(C)C [2-isobutyl-3-methoxypyrazine]
Average Ca2+ Counts [3]: 4020.0 Counts
inhibition at 100 µM [3]: 37.2%
Block of L-Menthol activation of TRPA1 [4]: BLOCK BOTH MENTHOL AND H2O2 ON TRPA1
Block of hydrogen peroxide activation of TRPA1 [2, 6]: BLOCK BOTH MENTHOL AND H2O2 ON TRPA1
Average Ca++ Counts [2, 7]: 3067.5 Counts
inhibition at 100 µM [2, 8]: 56.4%

C=CCc1cc(OC)c(O)c(OC)c1 [4-Allyl-2,6-dimethoxyphenol]
Block of AITC activation of TRPA1 ([1]; 400 μM antagonist): Block both H2O2 and AITC on TRPA1
Block of hydrogen peroxide activation of TRPA1 [2, 9]: Block both H2O2 and AITC on TRPA1
inhibition at 400 µM ([2]; antagonist 400 μM against 200 μM hydrogen peroxide, read-out: % Reduction of Hydrogen Peroxide TRPA1 Activation): 54%

CCCC(=O)OCc1ccc(OC)cc1 [Anisyl Butyrate]
Block of AITC activation of TRPA1 ([1]; 400 μM antagonist): Block both H2O2 and AITC on TRPA1
Block of hydrogen peroxide activation of TRPA1 [2, 9]: Block both H2O2 and AITC on TRPA1
% Reduction of Hydrogen Peroxide TRPA1 Activation ([2]; antagonist 400 μM against 200 μM hydrogen peroxide): 54%

CC1=CC(=O)[C@@H](C(C)C)CC1 [L-Piperitone]
% Reduction of Hydrogen Peroxide TRPV1 Activation [5]: 58%

C=CCOC(=O)CCC1CCCCC1 [allyl cyclohexanepropionate]
Average Ca2+ Counts [3]: 4895.5 Counts
inhibition at 100 µM [3]: 23.5%
Block of L-Menthol activation of TRPA1 [4]: BLOCK BOTH MENTHOL AND H2O2 ON TRPA1
Block of hydrogen peroxide activation of TRPA1 [2, 6]: BLOCK BOTH MENTHOL AND H2O2 ON TRPA1
Average Ca++ Counts [2, 7]: 3443.0 Counts
inhibition at 100 µM [2, 8]: 51.1%

c1ccc2scnc2c1 [benzothiazole]
Block of AITC activation of TRPA1 ([1]; 100 μM antagonist): Block both H2O2 and AITC on TRPA1
Average Ca++ Counts [2, 7]: 5513.0 Counts
inhibition at 100 µM [2, 8]: 48%

O=C(C=Cc1ccccc1)OCc1ccccc1 [benzyl cinnamate]
Block of AITC activation of TRPA1 ([1]; 100 μM antagonist): Block both H2O2 and AITC on TRPA1
Block of hydrogen peroxide activation of TRPA1 [2, 6]: Block both H2O2 and AITC on TRPA1
Average Ca++ Counts [2, 7]: 4828.5 Counts
inhibition at 100 µM [2, 8]: 54.4%

CCOC(=O)C1OC1c1ccccc1 (stereo not shown) [ethyl 3-phenylglycidate]
% Reduction of L-Menthol TRPV1 Activation [3]: 50.8%
Average Ca2+ Counts [3]: 1987.0 Counts
Block of L-Menthol activation of TRPA1 [4]: BLOCK ONLY MENTHOL/TRPA1

C=CCCCC(=O)OCC [ethyl 5-hexenoate]
Average Ca2+ Counts [3]: 1084.0 Counts
inhibition at 100 µM [3]: 41.8%
Block of L-Menthol activation of TRPA1 [4]: BLOCK ONLY MENTHOL/TRPA1

CCOC(=O)CC1(C)OCCO1 [ethyl acetoacetate ethylene ketal]
Block of AITC activation of TRPA1 ([1]; 100 μM antagonist): Block both H2O2 and AITC on TRPA1
Block of hydrogen peroxide activation of TRPA1 [2, 6]: Block both H2O2 and AITC on TRPA1
Average Ca++ Counts [2, 7]: 3298.5 Counts
inhibition at 100 µM [2, 8]: 53.2%

CCCCCC(=O)OCC [ethyl hexanoate]
Average Ca2+ Counts [3]: 3655.5 Counts
inhibition at 100 µM [3]: 42.9%
Block of L-Menthol activation of TRPA1 [4]: BLOCK ONLY MENTHOL/TRPA1

CCCCCCCC/C=C\CCCCCCCC(=O)OCC [ethyl oleate]
Average Ca2+ Counts [3]: 1431.3 Counts
inhibition at 100 µM [3]: 25.7%
Block of L-Menthol activation of TRPA1 [4]: BLOCK ONLY MENTHOL/TRPA1

CCOC(=O)CC [ethyl propionate]
Average Ca2+ Counts [3]: 2712.0 Counts
inhibition at 100 µM [3]: 32.8%
Block of L-Menthol activation of TRPA1 [4]: BLOCK ONLY MENTHOL/TRPA1

CCC/C=C/C(=O)OCC [ethyl trans-2-hexenoate]
Average Ca2+ Counts [3]: 1102.7 Counts
inhibition at 100 µM [3]: 40.9%
Block of L-Menthol activation of TRPA1 [4]: BLOCK ONLY MENTHOL/TRPA1

CCCCC/C=C/CCC(=O)OCC [ethyl trans-4-decenoate]
Average Ca2+ Counts [3]: 1454.3 Counts
inhibition at 100 µM [3]: 24.6%
Block of L-Menthol activation of TRPA1 [4]: BLOCK ONLY MENTHOL/TRPA1

COc1cc(/C=C/C(=O)O)ccc1O [ferulic acid]
Average Ca2+ Counts [3]: 1242.0 Counts
inhibition at 100 µM [3]: 34.5%
Block of L-Menthol activation of TRPA1 [4]: BLOCK ONLY MENTHOL/TRPA1

CCCCCCCCCCCCCCCCOC(=O)C(C)O (stereo not shown) [hexadecyl lactate]
Average Ca2+ Counts [3]: 1047.0 Counts
inhibition at 100 µM [3]: 43.5%
Block of L-Menthol activation of TRPA1 [4]: BLOCK ONLY MENTHOL/TRPA1

CCCOC(=O)CCCCC(=O)OCCC [hexanedioic acid, dipropyl ester]
Average Ca2+ Counts [3]: 2964.0 Counts
inhibition at 100 µM [3]: 26.6%
Block of L-Menthol activation of TRPA1 [4]: BLOCK ONLY MENTHOL/TRPA1

CCCCCC(=O)OCC(C)C [isobutyl hexanoate]
Average Ca2+ Counts [3]: 3443.5 Counts
inhibition at 100 µM [3]: 25.8%
Block of L-Menthol activation of TRPA1 [4]: BLOCK ONLY MENTHOL/TRPA1

CC(C)CCOC=O [isopentyl formate]
Average Ca2+ Counts [3]: 1451.7 Counts
inhibition at 100 µM [3]: 24.8%
Block of L-Menthol activation of TRPA1 [4]: BLOCK ONLY MENTHOL/TRPA1

C/C=C(\C)C(=O)OC(C)C [isopropyl tiglate]
Average Ca2+ Counts [3]: 4497.5 Counts
inhibition at 100 µM [3]: 29.7%
Block of L-Menthol activation of TRPA1 [4]: BLOCK ONLY MENTHOL/TRPA1

COC(=O)c1ccccc1NC(C)=O [methyl 2-(acetylamino)benzoate]
Average Ca2+ Counts [3]: 1178.3 Counts
inhibition at 100 µM [3]: 37.4%
Block of L-Menthol activation of TRPA1 [4]: BLOCK ONLY MENTHOL/TRPA1

CCCC(C)C(=O)OC (stereo not shown) [methyl 2-methylpentanoate]
Average Ca2+ Counts [3]: 1529.3 Counts
inhibition at 100 µM [3]: 21.2%
Block of L-Menthol activation of TRPA1 [4]: BLOCK ONLY MENTHOL/TRPA1

COC(=O)CCSC [methyl 3-(methylthio)propionate]
Average Ca2+ Counts [3]: 998.7 Counts
inhibition at 100 µM [3]: 45.7%
Block of L-Menthol activation of TRPA1 [4]: BLOCK ONLY MENTHOL/TRPA1

CCCCCCCCSC [methyl n-octyl sulfide]
Average Ca2+ Counts [3]: 1120.3 Counts
inhibition at 100 µM [3]: 40.1%
Block of L-Menthol activation of TRPA1 [4]: BLOCK ONLY MENTHOL/TRPA1

COC(=O)c1cccnc1 [methyl nicotinate]
Average Ca2+ Counts [3]: 1483.7 Counts
inhibition at 100 µM [3]: 23.3%
Block of L-Menthol activation of TRPA1 [4]: BLOCK ONLY MENTHOL/TRPA1

COc1ccccc1C [o-methylanisole]
Average Ca2+ Counts [3]: 1107.3 Counts
inhibition at 100 µM [3]: 40.7%
Block of L-Menthol activation of TRPA1 [4]: BLOCK ONLY MENTHOL/TRPA1

CCCCCCCC=O [octanal]
Average Ca2+ Counts [3]: 2759.0 Counts
inhibition at 100 µM [3]: 31.6%
Block of L-Menthol activation of TRPA1 [4]: BLOCK ONLY MENTHOL/TRPA1

C1CNCCN1 [piperazine]
Average Ca2+ Counts [3]: 3405.0 Counts
inhibition at 100 µM [3]: 46.8%
Block of L-Menthol activation of TRPA1 [4]: BLOCK BOTH MENTHOL AND H2O2 ON TRPA1
Block of hydrogen peroxide activation of TRPA1 [2, 6]: BLOCK BOTH MENTHOL AND H2O2 ON TRPA1
Average Ca++ Counts [2, 7]: 2815.5 Counts
inhibition at 100 µM [2, 8]: 60%

CCC/C=C/COC(=O)CC [propionic acid trans-2-hexen-1-yl ester]
Average Ca2+ Counts [3]: 1128.3 Counts
inhibition at 100 µM [3]: 39.7%
Block of L-Menthol activation of TRPA1 [4]: BLOCK ONLY MENTHOL/TRPA1

CCCOC(=O)C(C)=O [propyl pyruvate]
Average Ca2+ Counts [3]: 2386.5 Counts
inhibition at 100 µM [3]: 40.9%
Block of L-Menthol activation of TRPA1 [4]: BLOCK ONLY MENTHOL/TRPA1

CC(=O)C=O [pyruvic aldehyde]
% Reduction of L-Menthol TRPV1 Activation [3]: 22.3%
Average Ca2+ Counts [3]: 1504.0 Counts
Block of L-Menthol activation of TRPA1 [4]: BLOCK ONLY MENTHOL/TRPA1

C=C[C@H]1C[N@@]2CC[C@H]1C[C@H]2[C@H](O)c1ccnc2ccc(OC)cc12 [quinine hydrochloride dihydrate]
Average Ca2+ Counts [3]: 1505.3 Counts
inhibition at 100 µM [3]: 22.3%
Block of L-Menthol activation of TRPA1 [4]: BLOCK ONLY MENTHOL/TRPA1

CCC(C)SSC(C)CC (stereo not shown) [sec-butyl disulfide]
Average Ca2+ Counts [3]: 3652.0 Counts
inhibition at 100 µM [3]: 21.3%
Block of L-Menthol activation of TRPA1 [4]: BLOCK ONLY MENTHOL/TRPA1

CC(=O)OCC1CCCO1 (stereo not shown) [tetrahydrofurfuryl acetate]
Average Ca2+ Counts [3]: 1269.3 Counts
inhibition at 100 µM [3]: 33.2%
Block of L-Menthol activation of TRPA1 [4]: BLOCK ONLY MENTHOL/TRPA1

CCC/C=C/COC(C)=O [trans-2-hexenyl acetate]
Average Ca2+ Counts [3]: 1119.0 Counts
inhibition at 100 µM [3]: 40.2%
Block of L-Menthol activation of TRPA1 [4]: BLOCK ONLY MENTHOL/TRPA1

iron naphthenate
% Reduction of L-Menthol TRPV1 Activation [3]: 31.9%
Average Ca2+ Counts [3]: 2748.5 Counts
Block of L-Menthol activation of TRPA1 [4]: BLOCK ONLY MENTHOL/TRPA1

Source: US20130315843A1, “COMPOSITION FOR REDUCTION OF TRPA1 AND TRPV1 SENSATIONS” (priority 2012, published 2013)
